The subject of one data set is human AML MV-4-11 cells. The data set can be described thus: Inhibition of cell proliferation in cancer cell lines (CellTiter Aqueous One). In kind it is cell-based. Also noted: key: Active: Compounds with an IC50 value less than 30 μM were deemed to be active.; Not Active: Compounds with an IC50 value less than 30 μM were deemed to be active. As to conditions: 72 h. Summed up: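 IC50 values come from blank-corrected proliferation relative to DMSO controls, read as 490 nm absorbance 3–4 h after CellTiter Aqueous One addition. Before that, cells seeded at 5×10^4/well were exposed for 72 h (37° C, 5% CO2) to triplicate two-fold compound dilutions spanning 30–0.2 μM.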

The test system of a further data set is c-myc in MV4-11 cells. Kind of data set: Inhibition of c-myc expression in cancer cell lines (mRNA, real-time PCR). The data set is classed as cell-based, Human. The arrangement: key: Active: Compounds with an IC50 value less than 30 μM were deemed to be active.; Not Active: Compounds with an IC50 value less than 30 μM were deemed to be active. As to conditions: 3 h. Summed up: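 Duplex RT-qPCR of c-myc against cyclophilin cDNA gave IC50 from a dose–response curve. Input was isolated mRNA from 2.5×10^4 MV4-11 cells after 3 h exposure at 37 °C to compound or 0.1% DMSO vehicle.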
(Quantitative PCR measures a nucleic acid by following its amplification.)

The subject of another data set is hIL-6 mRNA. Kind of data set: Inhibition of hIL-6 mRNA transcription in LPS-stimulated U937 macrophages. The data set is classed as cell-based, human. The arrangement: key: Active: Compounds with an IC50 value less than 30 μM were deemed to be active.; Not Active: Compounds with an IC50 value less than 30 μM were deemed to be active. As to conditions: U937 cells differentiated with PMA, LPS stimulation, 3 h. Summed up:
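U937 cells, PMA-differentiated (60 ng/mL, 3 days), pretreated 1 h with compound, then stimulated with 1 ug/mL E. coli LPS for 3 h at 37° C. hIL-6 mRNA measured by one-step qRT-PCR, normalized to internal control, as fold induction relative to control.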

Data set [1] deals with T1, Brd4 bromodomain 1 (BRD4(1)) (Homo sapiens, UniProt O60885).
T1 construct: made in house; host or cells: E. coli BL21(DE3)
The data set can be described thus: Inhibition of tetra-acetylated histone H4 binding to BET bromodomains (TR-FRET). The arrangement: key: Active: Compounds with an IC50 value less than 30 μM were deemed to be active.; Not Active: Compounds with an IC50 value less than 30 μM were deemed to be active. The settings on record: first bromodomain of Brd4, tetra-acetylated histone H4 peptide. Summed up: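 N-terminally His-tagged bromodomain (200 nM) from E. coli was mixed with biotinylated tetra-acetylated histone H4 peptide (25-50 nM), Eu-streptavidin and XL665 anti-His, plus compound, in HEPES pH 7.4 buffer with 0.2% DMSO. After 2 h at room temperature, the 665/620 nm TR-FRET decrease gave IC50 from dose-response curves.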
In general terms: Time-resolved FRET reads energy transfer from a long-lived donor to a nearby acceptor.

A further data set deals with hIL-17 mRNA. The data set can be described thus: Inhibition of hIL-17 mRNA transcription in OKT3-stimulated PBMC. The data set is classed as cell-based. Also noted: key: Active: Compounds with an IC50 value less than 30 μM were deemed to be active.; Not Active: Compounds with an IC50 value less than 30 μM were deemed to be active. The settings on record: human peripheral blood mononuclear cells, OKT3 antibody, 6 h. Here is the method:
In this example, hIL-17 mRNA in human peripheral blood mononuclear cells was quantitated to measure the transcriptional inhibition of hIL-17 when treated with a compound of the invention.
Human peripheral blood mononuclear cells were plated (2.0×10^5 cells per well) in a 96-well plate in 45 μL OpTimizer T Cell expansion media containing 20 ng/ml IL-2 and penicillin/streptomycin. The cells were treated with the test compound (45 μL at 2x concentration), and then the cells were incubated at 37° C. for 1 h before addition of 10x stock OKT3 antibody at 10 ug/ml in media. Cells were incubated at 37° C. for 6 h before the cells were harvested. At time of harvest, cells were centrifuged (800 rpm, 5 min). Spent media was removed and cell lysis solution (70 μL) was added the cells in each well and incubated for 5-10 min at room temperature, to allow for complete cell lysis and detachment. mRNA was then prepared using the “mRNA Catcher PLUS plate” (Invitrogen), according to the protocol supplied. […]
The eluted mRNA isolated was then used in a one-step quantitative RT-PCR reaction, using components of the Ultra Sense Kit together with Applied Biosystems primer-probe mixes. Real-time PCR data was analyzed, normalizing the Ct values for hIL-17 to an internal control, prior to determining the fold induction of each unknown sample, relative to the control.

In another data set the test system is hApoA-1 mRNA. Kind of data set: Up-regulation of hApoA-1 mRNA transcription in Huh7 cells. In kind it is cell-based, human. Also noted: key: Active: Compounds with an EC170 value less than 30 μM were deemed to be active. The settings on record: 48 h treatment. Here is the method:
In this example, ApoA-I mRNA in tissue culture cells was quantitated to measure the transcriptional up-regulation of ApoA-I when treated with a compound of the present disclosure.
Huh7 cells (2.5×10^5 per well) were plated in a 96-well plate using 100 μL DMEM per well, (Gibco DMEM supplemented with penicillin/streptomycin and 10% FBS), 24 h before the addition of the compound of interest. After 48 h treatment, the spent media was removed from the Huh-7 cells and placed on ice (for immediate use) or at −80° C. (for future use) with the “LDH cytotoxicity assay Kit II” from Abcam. The cells remaining in the plate were rinsed with 100 μL PBS.
Then 85 μL of cell lysis solution was added to each well and incubated for 5-10 min at room temperature, to allow for complete cell lysis and detachment. mRNA was then prepared using the “mRNA Catcher PLUS plate” from Life Technologies, according to the protocol supplied. After the last wash, as much wash buffer as possible was aspirated without allowing the wells to dry. Elution Buffer (E3, 80 μL) was then added to each well. mRNA was then eluted by incubating the mRNA Catcher PLUS plate with Elution Buffer for 5 min at 68° C., and then 1 min at 4° C. Catcher plates with mRNA eluted were kept on ice for use or stored at −80° C.
The eluted mRNA isolated was then used in a one-step real-time PCR reaction, using components of the Ultra Sense Kit together with Life Technologies primer-probe mixes. Real-time PCR data was analyzed, using the Ct values, to determine the fold induction of each unknown sample, relative to the control (that is, relative to the control for each independent DMSO concentration).
Compounds with an EC170 value less than 30 μM were deemed to be active.

`COc1ccc(-c2nc3cc(OC)cc(OC)c3c(=O)[nH]2)c(NC2CCN(C(=O)C(C)C)CC2)c1` [Example 19, 2-(2-((1-Isobutyrylpiperidin-4-yl)amino)-4-methoxyphenyl)-5,7-dimethoxyquinazolin-4(3H)-one]: the “Cell Proliferation activity (IC50 < 30 μM)” value (from here on “Cell Proliferation activity”) in the data set on human AML MV-4-11 cells is on record as “Active”. Further, the “c-myc activity (IC50 < 30 μM)” value with c-myc in MV4-11 cells is “Active”. The “IL-6 activity (IC50 < 30 μM)” value with hIL-6 mRNA is listed as “Active”. Also, the “FRET activity BRD4(1)” value in data set [1] is listed as “Active”. The “IL-17 activity (IC50 < 30 μM)” value in the data set with hIL-17 mRNA is “Active”.

One may read the melting point as the temperature, or range, at which the solid turns liquid. Molecule `COc1ccc(-c2nc3cc(OC)cc(OC)c3c(=O)[nH]2)c(NCCCNC(C)C)c1` [Example 20, 2-(2-((3-(Isopropylamino)propyl)amino)-4-methoxyphenyl)-5,7-dimethoxyquinazolin-4(3H)-one] displayed a melting point of 208 to 210 °C. Besides, in the data set on human AML MV-4-11 cells, the “Cell Proliferation activity” value was “Active”. Moreover, the “c-myc activity (IC50 < 30 μM)” value in the data set with c-myc in MV4-11 cells is on record as “Active”. Further, the “IL-6 activity (IC50 < 30 μM)” value with hIL-6 mRNA was “Active”. Also, in data set [1], the “FRET activity BRD4(1)” value is recorded as “Active”. The “ApoA-1 activity (EC170 < 30 μM)” value in the data set with hApoA-1 mRNA is on record as “Active”.

For `COc1cnc(-c2nc3cc(OC)cc(OC)c3c(=O)[nH]2)c(NC2CCN(C(=O)C(C)C)CC2)c1` [Example 32, 2-(3-((1-Isobutyrylpiperidin-4-yl)amino)-5-methoxypyridin-2-yl)-5,7-dimethoxyquinazolin-4(3H)-one], the melting point fell in the range of 192 to 193 °C. Besides, the “Cell Proliferation activity” value in the data set with human AML MV-4-11 cells is “Active”. Moreover, in the data set on c-myc in MV4-11 cells, the “c-myc activity (IC50 < 30 μM)” value is “Active”. Moreover, the “IL-6 activity (IC50 < 30 μM)” value in the data set with hIL-6 mRNA is reported as “Active”. In data set [1], the “FRET activity BRD4(1)” value was “Active”. Moreover, the “ApoA-1 activity (EC170 < 30 μM)” value in the data set on hApoA-1 mRNA is “Active”.

Values taken from US10500209B2, “Quinazolinones as bromodomain inhibitors” (Zenith Epigenetics Ltd., priority 2013, dated 2019).
